In paper PMC10349142, “Minimal mechanistic component of HbYX-dependent proteasome activation that reverses impairment by neurodegenerative-associated oligomers” (Communications Biology, 2023):
One block for each compound: values may come before it.

Columns and labels:
[1] = target: T1, Mammalian 20S proteasome (M20S); assay: fluorogenic peptide hydrolysis, activator saturation curve; assay type: biochemical, Bos taurus
T1 construct: gene PSMA5; native 20S core particle purified from bovine liver; alpha7-beta7-beta7-alpha7; with Proteasome subunit beta type-1; Proteasome subunit beta type-2; Proteasome subunit beta type-3; Proteasome subunit beta type-4; Proteasome subunit beta type-5; Proteasome subunit beta type-6; Proteasome subunit beta type-7
Source text: fluorogenic peptide hydrolysis, activator saturation curve on Mammalian 20S proteasome (M20S)

[2] = target: T1, Mammalian 20S proteasome (M20S); assay: fluorogenic peptide hydrolysis, activator saturation curve (Hill fit); assay type: biochemical, Bos taurus; settings: activation (gate opening); nLPnLD-AMC substrate; 0.5 nM 20S; pH 7.5; 37 °C; 2% DMSO; allosteric, alpha intersubunit pockets; read-out: Kobs
Source text: fluorogenic peptide hydrolysis, activator saturation curve (Hill fit) on Mammalian 20S proteasome (M20S)

[3] = target: T2, T. acidophilum 20S proteasome (T20S) (Thermoplasma acidophilum, UniProt P25156); assay: LFP nonapeptide hydrolysis, dose response; assay type: biochemical; settings: activation (gate opening); 7 nM T20S; LFP substrate; pH 7.5; 45 °C; 2% DMSO; allosteric, alpha intersubunit pockets
T2 construct: gene psmA; recombinant 20S core particle; 8xHis tag on C-terminus of beta subunit; with Proteasome subunit beta
T2 sequence (P28061 9-211, stated change not applied): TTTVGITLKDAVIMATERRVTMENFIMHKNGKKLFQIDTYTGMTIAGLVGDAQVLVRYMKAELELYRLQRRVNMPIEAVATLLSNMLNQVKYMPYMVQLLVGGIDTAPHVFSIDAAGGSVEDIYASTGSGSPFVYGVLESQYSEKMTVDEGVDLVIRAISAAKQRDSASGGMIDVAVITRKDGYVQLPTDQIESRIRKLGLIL
T2 sequence (P25156 whole entry, stated change not applied): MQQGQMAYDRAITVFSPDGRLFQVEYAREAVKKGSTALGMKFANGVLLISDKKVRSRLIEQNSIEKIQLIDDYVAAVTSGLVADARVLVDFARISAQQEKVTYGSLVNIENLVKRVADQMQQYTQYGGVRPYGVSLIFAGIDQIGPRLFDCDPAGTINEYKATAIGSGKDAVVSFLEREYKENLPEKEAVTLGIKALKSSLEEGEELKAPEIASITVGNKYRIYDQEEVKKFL

[4] = target: T3, T. acidophilum 20S proteasome (T20S) (Thermoplasma acidophilum, UniProt P25156, K66A); assay: LFP nonapeptide hydrolysis; assay type: biochemical; settings: 7 nM T20S; LFP substrate; pH 7.5; 45 °C; 2% DMSO
T3 construct: gene psmA; recombinant 20S core particle; 8xHis tag on C-terminus of beta subunit; with Proteasome subunit beta
T3 sequence (P25156 whole entry K66A): as the sequence (P25156 whole entry, stated change not applied) above, with K66A counted along it
T3 sequence (P28061 9-211, further chain): as the sequence (P28061 9-211, stated change not applied) above

[5] = target: T4, T. acidophilum 20S proteasome (T20S) (Thermoplasma acidophilum, UniProt P25156, DEL2-12); assay: LFP nonapeptide hydrolysis; assay type: biochemical; settings: 7 nM T20S; LFP substrate; pH 7.5; 45 °C; 2% DMSO
T4 construct: gene psmA; recombinant 20S core particle; 8xHis tag on C-terminus of beta subunit; with Proteasome subunit beta
T4 sequence (P25156 other isoform, or with tags, fused parts or gaps DEL2-12): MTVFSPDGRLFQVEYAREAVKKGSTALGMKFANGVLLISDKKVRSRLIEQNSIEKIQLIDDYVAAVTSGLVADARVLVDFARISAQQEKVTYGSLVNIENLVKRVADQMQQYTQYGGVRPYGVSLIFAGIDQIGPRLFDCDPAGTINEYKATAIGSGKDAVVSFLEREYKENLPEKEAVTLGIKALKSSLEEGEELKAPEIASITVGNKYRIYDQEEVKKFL
T4 sequence (P28061 9-211, stated change not applied, further chain): as the sequence (P28061 9-211, stated change not applied) above

[6] = activation; pH 7.5; 37 °C; 2% DMSO; site unknown; read-out: Kobs

SMILES: CCCCC/C=C\C/C=C\C/C=C\C/C=C\CCCC(=O)Nc1ccc(O)cc1 [AM-404]
EC50 ([1]; read-out: Kobs; activation; pH 7.5; 37 °C; 2% DMSO; site unknown): 12.1 µM

EC50 [1, 6]: 2.7 µM
SMILES: O=C1NCN(c2ccccc2)C12CCN(CCCC(c1ccc(F)cc1)c1ccc(F)cc1)CC2 [Fluspirilene]

EC50 [2]: 970 µM
SMILES: C[C@H](NC(=O)[C@H](Cc1ccc(O)cc1)NC(=O)OCc1ccccc1)C(=O)O [ZYA]
affinity [3]: highly similar to its affinity for the T20S (Fig. 2b)
no activation at 2.5 mM [4]: it could not stimulate gate-opening in T20S-K66A to any extent (Fig. 2d)
no activation at 2.5 mM [5]: ZYA did not stimulate the activity of αΔN-T20S to any extent (Fig. 2e)

EC50 [1, 6]: 0.8 µM
SMILES: CCOC(=O)[C@]1(c2ccccc2)N=C(c2ccc(OC)cc2)N(Cc2ccccc2)[C@@H]1c1ccc(NCc2ccccc2)cc1 [TCH-165]
